In data set [1] the test system is SK-MEL-28. In words: Photo- and cytotoxic activity determination (MTT), SK-MEL-28 cells. The settings on record: normoxia. Type of data set: cell-based, human. The text has this:
(§1) Having shown that the Ir(III)-COUPY conjugates can sensitize both type I and II ROS through spectroscopic techniques and readily internalize into living cells, their photocytotoxicity was screened in various cancer cell lines. This screening included two representative melanoma cell lines (human A375 and […] human SK-MEL-28) and cancer cells with resistance to the clinical drug cisplatin. For the latter, both sensitive and cisplatin-resistant ovarian cancer cells (A2780 and A2780cis) as well as HeLa cells, which also show a degree of chemoresistance to the platinum anticancer drug in vitro,[54] were used. For the determination of dark and light cytotoxicity, dose–response curves were assayed from both conditions to provide the correspondent IC50 values, which correspond to the concentration needed for inhibition of cell growth by 50%. Phototherapeutic index (PI) was calculated as the ratio of dark to light IC50 value for each compound.
A375, HeLa, and SK-MEL-28 cells were cultured in Dulbecco’s modified Eagle medium (DMEM) supplemented with 10% FBS, L-glutamine, and 1% penicillin–streptomycin. A2780 and A2780cis cells were grown in RPMI-1640 cell medium supplemented with 10% fetal bovine serum (FBS) and 2 mM L-glutamine. Acquired resistance to cisplatin in the A2780cis cell line was maintained by adding cisplatin 1 μM to culture medium every second passage. Cells were cultured in a humidified incubator at 310 K with 5% CO2 atmosphere and subcultured two or three times a week with appropriate densities and were confirmed to be mycoplasma-free using a standard Hoechst DNA staining method.
(§2) A2780, A2780cis, HeLa, A375, and SK-MEL-28 cells were maintained at logarithmic growth-phase and cultured in 96-well plates at a density of 5000 cells/well in complete medium for 24 h at 310 K, 5% CO2 in a humidified incubator. For hypoxia experiments, a hypoxia condition was set up by Tissue Culture Service at University of Murcia using nitrogen (N2) to displace O2 down to a minimum of 2% in a Forma Steri-Cycle i160 incubator (Thermo Fisher Scientific). Serial dilutions of the compounds were added at the final concentrations in the range of 0–100 μM in a final volume of 100 μL per well. A light-based treatment schedule was performed as follows: 1 h incubation with the compounds in the dark, followed by 1 h incubation under irradiation conditions by placing the Photoreactor EXPO-LED from Luzchem (Canada) fitted with green lamps (final light intensity applied of 1.5 mW/cm^2 at λmax = 520 nm) inside the CO2 incubator. All the cell culture plates subjected to light irradiation included untreated controls to verify that cell viability was not affected by light. Then, treatment-containing media was removed, and fresh media was added for a 48 h cell recovery period; the temperature throughout the experiment remained at 310 K. Dark control samples were placed in the same dark conditions and then kept incubated for 1 h in the dark in the humidified CO2 incubator. Medium was then aspirated by suction, cells were loaded with 50 μL of MTT solution (1 mg/mL) for additional 4 h and then removed, and 50 μL of DMSO was added to solubilize the purple formazan crystals formed in active cells. The absorbance was measured at 570 nm using a microplate reader (FLUOstar Omega), and the IC50 values were calculated based on the inhibitory rate curves using the following equation [drawing 4] 4 where I represents the percentage inhibition of viability observed, Imax is the maximal inhibitory effect, IC50 is the concentration that inhibits 50% of maximal growth, C is the concentration of the treatment, and n is the slope of the semi-logarithmic dose–response sigmoidal curves. The non-linear fitting was performed using SigmaPlot 14.0 software. All experiments were performed in three independent studies with n = 3 replicates per concentration level. For a detailed phototoxicity procedure, ref ([43]) includes technical explanations.

The subject of data set [2] is A375, SK-MEL-28, HeLa, A2780 and A2780cis cancer cells. In words: Photo- and cytotoxicity, statements across the studied cancer cell lines. The class given is cell-based. The note with it: absence of light; regardless of the cell line; read-out: dark IC50 in the studied cancer cell lines.
Excerpt: as §1
as §2, with “4 where I represents the percentage inhibition of viability observed, Imax is the maximal inhibitory effect, IC50 is the concentration that inhibits 50% of maximal growth, C is the concentration of the treatment, and n is the slope of the semi-logarithmic dose–response sigmoidal curves. The non-linear fitting was performed using SigmaPlot 14.0 software. All experiments were performed in three independent studies with n = 3 replicates per concentration level. For a detailed phototoxicity procedure, ref ([43]) includes technical explanations.” left out

Data set [3] deals with A2780cis cells. Briefly: Cell death induction (Annexin V/PI staining, FSC/SSC flow cytometry). The note with it: 10 μM. The class given is cell-based. The protocol:
Cell death induction was evaluated using the Annexin V-FITC/Propidium iodide (AV/PI) dual staining method. Briefly, A2780cis cells were seeded in 12-well plates at a density of 2 × 10^5 cells/well and incubated overnight at 310 K. Tested compounds (10 μM) were added, following the described treatment schedule (1 h incubation + 1 h irradiation with 520 nm light). Irradiated, non-treated cells served as the control group. After 24 h of the drug-free recovery period, cells were harvested by trypsinization, washed with PBS and centrifuged, and the pellets were resuspended in 200 μL of a binding buffer as instructed by the manufacturer (Cayman). The resuspended cell solution was left at room temperature in the dark for 15 min before analysis by flow cytometry (FACSCalibur BecktonDickinson; 10^4 events acquired per sample). Cells were visualized using λexc = 488 channels and registered at 525 nm and 620 nm for Annexin V and propidium iodide in FL1 and FL2 channels, respectively. Cell populations were classified as follows: AV^-/PI^- (viable cells); AV^-/PI^+ (necrotic cells); AV^+/PI^- and AV^+/PI^+ (apoptotic cells). Alternatively, A2780cis cells were subjected to flow cytometry after phototreatments and morphological changes were analyzed using FSC and SSC contour plots. Data were analyzed using FlowJo software. Three independent experiments were performed.
(In flow cytometry, cells or beads pass a laser one at a time.)

The nature of data set [4]: Singlet oxygen generation, time-resolved NIR phosphorescence at 1275 nm. Type of data set: physicochemical. The note with it: DCM; excitation at 355 and 532 nm. The source says: Singlet oxygen generation was studied by time-resolved near-infrared phosphorescence by means of a customized setup. Briefly, a pulsed Nd:YAG laser (FTSS355-Q, Crystal Laser, Berlin, Germany) working at a 1 or 10 kHz repetition rate at 355 nm (0.5 μJ per pulse) or 532 nm (1.2 μJ per pulse) was used to excite the sample. A 1064 nm rugate notch filter (Edmund Optics) and an uncoated SKG-5 filter (CVI Laser Corporation) were placed in the laser path to remove any NIR emission. The light emitted by the sample was filtered with a 1000 nm long-pass filter (Edmund Optics) and later by a narrow bandpass filter at 1275 nm (BK-1270-70-B, bk Interferenzoptik). A thermoelectric-cooled NIR-sensitive photomultiplier tube assembly (H9170-45, Hamamatsu Photonics, Hamamatsu, Japan) was used as a detector. […] The time dependence of the ^1O2 phosphorescence with the signal intensity S(t) is described by eq 2, in which τT and τΔ are the lifetimes of the photosensitizer triplet state and of ^1O2 respectively, and S0 is a preexponential parameter proportional to ΦΔ. [drawing 2] 2
The ΦΔ values of the different samples were obtained by comparing S0 values of optically matched samples and using an appropriate reference by means of eq 3. [drawing 3] 3

Where two headings read alike, the source gives them in different places. Bounds are passed on as bounds.

The term IC50 denotes the point on the concentration scale where inhibition reaches its midpoint. Consider `CCCCn1c2[n+](c3cc(C(=O)NCCCNC(=O)C[n+]4ccc(/C(C#N)=C5/C=C(C)c6cc7c8c(c6O5)CCCN8CCC7)cc4)ccc31)[Ir-3]13([c]4ccccc4-c4[nH]c5ccccc5[n+]41)([c]1ccccc1-c1[nH]c4ccccc4[n+]13)[n+]1c-2ccc2ccccc21` [3c], for which the 50% inhibitory concentration (IC50) in data set [1] (520 nm, read-out: SK-MEL-28 Light 520 nm IC50 (microM) Normoxia) is above 100 µM; in data set [1] (1 h incubation + 1 h green light 520 nm, 1.5 mW cm^–2, 48 h drug-free medium, read-out: SK-MEL-28 light IC50) it was above 100 µM; in data set [1] (dark, read-out: SK-MEL-28 Dark IC50 (microM) Normoxia) it was above 100 µM; in data set [1] (kept in the dark, 2 h treatment, 48 h drug-free medium, read-out: SK-MEL-28 dark IC50), above 100 µM; in data set [2] it was above 100 µM. The “mode of cell death (Annexin V/Propidium Iodide)” value in data set [3] (1 h + 1 h 520 nm, 24 h recovery) is recorded as “photoinduced necrotic cell death”. For the same molecule, in data set [3] (1 h, 520 nm 1 h), the “secondary cell population with low FSC/SSC ratios (non-viable morphology)” value was “vastly induced these secondary cell populations”. In addition, the “singlet oxygen quantum yields in DCM” value in data set [4] was “ca. 0.20”.

Values taken from paper PMC10291553, “Exploring Structure–Activity Relationships in Photodynamic Therapy Anticancer Agents Based on Ir(III)-COUPY Conjugates” (Journal of Medicinal Chemistry, 2023).
